# In ChEMBL document CHEMBL1201862, “PubChem BioAssay data set” (2004):
# Calls of active or inactive are those of the source.
# Assays:
# [1] = molecular target: T1, Hexokinase-1 (Homo sapiens, UniProt P19367); experiment: HK1 enzyme inhibition by HKDC1 hits, SAR follow-up, selectivity assay for HKDC1 inhibitor project, biochemical, set 2, resazurin fluorescence coupled readout (AID 588356); type: functional
# T1 sequence (P19367 whole entry): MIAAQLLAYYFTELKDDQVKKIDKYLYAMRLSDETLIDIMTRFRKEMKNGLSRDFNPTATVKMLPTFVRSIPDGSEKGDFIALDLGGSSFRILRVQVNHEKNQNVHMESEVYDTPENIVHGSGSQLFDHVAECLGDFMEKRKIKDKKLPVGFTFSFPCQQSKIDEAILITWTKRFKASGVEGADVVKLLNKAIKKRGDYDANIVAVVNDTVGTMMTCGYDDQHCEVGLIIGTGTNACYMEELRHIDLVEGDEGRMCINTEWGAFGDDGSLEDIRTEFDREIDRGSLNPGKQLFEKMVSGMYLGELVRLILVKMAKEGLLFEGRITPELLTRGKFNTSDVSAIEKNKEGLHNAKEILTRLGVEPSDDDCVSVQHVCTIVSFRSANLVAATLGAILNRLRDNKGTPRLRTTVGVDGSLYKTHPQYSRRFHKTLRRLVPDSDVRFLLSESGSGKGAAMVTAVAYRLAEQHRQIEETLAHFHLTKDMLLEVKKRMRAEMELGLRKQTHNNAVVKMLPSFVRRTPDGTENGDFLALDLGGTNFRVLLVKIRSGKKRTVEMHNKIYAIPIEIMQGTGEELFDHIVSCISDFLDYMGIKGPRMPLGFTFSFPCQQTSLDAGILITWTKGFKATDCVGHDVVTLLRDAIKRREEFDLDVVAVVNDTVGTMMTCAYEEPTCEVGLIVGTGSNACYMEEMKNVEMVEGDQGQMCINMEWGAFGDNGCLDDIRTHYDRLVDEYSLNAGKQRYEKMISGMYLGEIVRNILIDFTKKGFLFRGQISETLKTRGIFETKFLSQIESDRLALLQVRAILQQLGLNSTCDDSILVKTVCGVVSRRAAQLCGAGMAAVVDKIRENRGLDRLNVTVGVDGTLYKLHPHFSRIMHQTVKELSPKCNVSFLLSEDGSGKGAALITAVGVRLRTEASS
# [2] = molecular target: T2, Hexokinase HKDC1 (Homo sapiens, UniProt Q2TB90); experiment: HKDC1 hexokinase inhibitors, SAR follow-up, biochemical, set 2 (AID 588355); type: functional
# T2 sequence (Q2TB90 whole entry): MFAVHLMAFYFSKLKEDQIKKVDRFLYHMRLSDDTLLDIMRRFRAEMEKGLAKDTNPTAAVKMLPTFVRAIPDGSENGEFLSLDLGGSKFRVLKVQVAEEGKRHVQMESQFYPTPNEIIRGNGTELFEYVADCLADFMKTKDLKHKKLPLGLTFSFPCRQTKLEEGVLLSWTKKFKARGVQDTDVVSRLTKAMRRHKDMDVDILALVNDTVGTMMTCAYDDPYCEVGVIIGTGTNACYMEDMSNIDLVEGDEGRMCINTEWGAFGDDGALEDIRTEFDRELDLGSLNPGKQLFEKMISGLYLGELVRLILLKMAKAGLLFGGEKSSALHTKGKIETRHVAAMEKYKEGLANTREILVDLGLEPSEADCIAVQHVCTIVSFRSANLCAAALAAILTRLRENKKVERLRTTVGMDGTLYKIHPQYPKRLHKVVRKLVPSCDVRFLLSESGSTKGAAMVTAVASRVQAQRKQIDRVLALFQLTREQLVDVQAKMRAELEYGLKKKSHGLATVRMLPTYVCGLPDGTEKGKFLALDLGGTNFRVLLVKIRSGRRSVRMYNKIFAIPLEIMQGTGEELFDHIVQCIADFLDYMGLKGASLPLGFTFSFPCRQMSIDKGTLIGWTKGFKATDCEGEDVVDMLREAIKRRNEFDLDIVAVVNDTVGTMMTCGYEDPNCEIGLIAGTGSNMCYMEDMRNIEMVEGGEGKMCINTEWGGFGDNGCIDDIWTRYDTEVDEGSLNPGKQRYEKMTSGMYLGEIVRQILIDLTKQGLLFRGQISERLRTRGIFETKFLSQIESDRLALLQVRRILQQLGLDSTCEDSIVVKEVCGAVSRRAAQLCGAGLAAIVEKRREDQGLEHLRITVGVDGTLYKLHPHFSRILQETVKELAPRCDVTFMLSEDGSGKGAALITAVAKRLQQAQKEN
# [3] = molecular target: Voltage-gated inwardly rectifying potassium channel KCNH2 (Homo sapiens, UniProt Q12809); details: Potency;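 further: confirmatory quantitative high-throughput screen measuring inhibition of hERG channel activity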
# Voltage-gated inwardly rectifying potassium channel KCNH2, sequence (Q12809 whole entry): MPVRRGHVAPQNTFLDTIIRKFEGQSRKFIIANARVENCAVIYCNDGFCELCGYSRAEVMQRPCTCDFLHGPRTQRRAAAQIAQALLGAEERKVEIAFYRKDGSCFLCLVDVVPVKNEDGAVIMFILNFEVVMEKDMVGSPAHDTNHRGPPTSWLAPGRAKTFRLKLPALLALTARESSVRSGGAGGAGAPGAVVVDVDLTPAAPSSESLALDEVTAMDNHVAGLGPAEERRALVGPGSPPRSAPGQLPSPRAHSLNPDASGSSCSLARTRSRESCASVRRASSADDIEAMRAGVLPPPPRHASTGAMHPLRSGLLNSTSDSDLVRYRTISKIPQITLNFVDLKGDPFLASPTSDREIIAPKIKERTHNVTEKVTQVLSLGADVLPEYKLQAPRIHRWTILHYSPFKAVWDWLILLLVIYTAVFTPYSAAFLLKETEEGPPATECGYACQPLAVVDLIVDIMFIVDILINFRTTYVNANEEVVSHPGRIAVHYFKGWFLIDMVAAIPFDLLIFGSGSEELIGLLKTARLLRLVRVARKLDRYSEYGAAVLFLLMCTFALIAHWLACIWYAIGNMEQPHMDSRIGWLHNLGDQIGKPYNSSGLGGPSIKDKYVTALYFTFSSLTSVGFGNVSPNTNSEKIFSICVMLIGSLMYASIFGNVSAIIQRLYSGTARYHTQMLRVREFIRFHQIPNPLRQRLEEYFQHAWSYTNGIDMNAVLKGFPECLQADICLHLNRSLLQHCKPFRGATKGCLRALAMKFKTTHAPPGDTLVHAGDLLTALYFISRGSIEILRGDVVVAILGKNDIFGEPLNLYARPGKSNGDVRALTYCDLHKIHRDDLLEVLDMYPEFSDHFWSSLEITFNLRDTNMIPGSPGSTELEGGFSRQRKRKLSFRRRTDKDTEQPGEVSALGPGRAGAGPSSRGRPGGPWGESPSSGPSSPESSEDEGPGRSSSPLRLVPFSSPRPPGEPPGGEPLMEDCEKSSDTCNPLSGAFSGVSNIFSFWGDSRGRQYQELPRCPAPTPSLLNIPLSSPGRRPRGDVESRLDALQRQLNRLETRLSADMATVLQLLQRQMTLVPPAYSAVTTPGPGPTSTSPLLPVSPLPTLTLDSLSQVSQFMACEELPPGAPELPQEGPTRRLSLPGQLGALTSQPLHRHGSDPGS
# [4] = mammalian cell cytotoxicity, dose response, cytotoxicity control, plate reader, cherry-pick samples (AID 504397); type: functional, cell-based
# [5] = molecular target: T3, CAAX prenyl protease 2 (Saccharomyces cerevisiae S288c, UniProt Q03530); type: biochemical
# T3 sequence (Q03530 whole entry): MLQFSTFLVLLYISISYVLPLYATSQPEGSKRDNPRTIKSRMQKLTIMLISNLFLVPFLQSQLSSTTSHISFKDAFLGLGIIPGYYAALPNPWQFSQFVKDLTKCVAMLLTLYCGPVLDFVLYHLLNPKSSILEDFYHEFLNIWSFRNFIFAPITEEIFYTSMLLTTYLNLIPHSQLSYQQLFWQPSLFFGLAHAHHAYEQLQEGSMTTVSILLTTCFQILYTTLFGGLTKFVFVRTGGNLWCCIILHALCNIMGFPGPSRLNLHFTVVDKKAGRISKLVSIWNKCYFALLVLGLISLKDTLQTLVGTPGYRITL
# [6] = molecular target: CAAX prenyl protease 2 (Homo sapiens, UniProt Q9Y256); experiment: human Rce1 protease inhibitors, dose response, biochemical, yeast membranes, quenched-peptide fluorescence, cherry-pick (AID 588849)
# CAAX prenyl protease 2 (Homo sapiens, UniProt Q9Y256), sequence (Q9Y256 whole entry): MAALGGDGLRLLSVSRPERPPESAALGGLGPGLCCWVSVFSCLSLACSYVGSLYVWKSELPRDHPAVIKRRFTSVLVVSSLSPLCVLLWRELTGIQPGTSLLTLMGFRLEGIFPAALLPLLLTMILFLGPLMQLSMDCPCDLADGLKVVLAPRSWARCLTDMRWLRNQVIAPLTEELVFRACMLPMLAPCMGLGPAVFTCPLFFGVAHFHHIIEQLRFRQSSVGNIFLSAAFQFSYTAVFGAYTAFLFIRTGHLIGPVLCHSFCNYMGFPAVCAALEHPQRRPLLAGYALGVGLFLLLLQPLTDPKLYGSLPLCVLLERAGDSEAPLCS
# [7] = system: BJ; experiment: cytotoxicity toward BJ-TERT fibroblasts, dose response, cell-based, RAS-independent, luminescence (AID 1933); type: functional; details: Homo sapiens
# [8] = system: HEK293; experiment: NOD1 signaling inhibitors, primary screen, cell-based, luminescence, uHTS (AID 1578); type: functional; details: Homo sapiens
# [9] = system: A-375; experiment: A375 melanoma cell viability reduction, dose response, counter-screen for MITF modulator project, cherry-pick samples, set 2 (AID 540335); type: functional, cell-based; details: Homo sapiens
# [10] = system: HEK293; experiment: cells; type: functional, cell-based; details: Homo sapiens
# [11] = system: HEK293; experiment: NOD2 signaling inhibitors in MDP-stimulated cells, cell-based, uHTS, luminescence (AID 2001); type: functional; details: Homo sapiens
# [12] = cytotoxicity in HEK-293T cells, dose response, cytotoxicity control for TCR NF-kB inhibitor project, luminescence, T-cell screen hits (AID 489026); type: functional, cell-based;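 further: cells exposed to compound about 14 hours before the viability readout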
# [13] = cytotoxicity toward DRD oncogenic fibroblasts, dose response, cell-based, non-viral oncogenic, luminescence (AID 1934); type: functional; details: Homo sapiens
# [14] = system: BJ; experiment: cytotoxicity toward BJ-TERT-LT-ST fibroblasts, dose response, cell-based, RAS-independent, luminescence (AID 1935); type: functional; details: Homo sapiens;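 further: BJ fibroblasts immortalized with TERT plus LT and ST oncogenes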
# [15] = system: Streptococcus; experiment: Group A Streptococcus viability loss, dose response, counter-screen for streptokinase expression inhibitor project, luminescence, BacTiterGlo (AID 1915); type: functional, organism-based;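 further: potency for reduction of bacterial viability or growth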
# [16] = system: BJ; experiment: cytotoxicity toward Ras-transformed BJeLR fibroblasts, dose response, cell-based, alamar blue fluorescence, cherrypicked samples (AID 2631); type: functional; details: Homo sapiens;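 further: confirmatory dose-response assay in RAS-dependent BJ fibroblasts engineered with TERT, LT and ST, with cytotoxicity read by fluorescence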
# [17] = molecular target: T4, Microphthalmia-associated transcription factor (Homo sapiens, UniProt O75030); experiment: TRPM1 promoter luciferase signal decrease, dose response, MITF inhibitor project, cell-based, SK-MEL-5, cherry-picked, set 3 (AID 493073); type: functional
# T4 sequence (O75030 whole entry): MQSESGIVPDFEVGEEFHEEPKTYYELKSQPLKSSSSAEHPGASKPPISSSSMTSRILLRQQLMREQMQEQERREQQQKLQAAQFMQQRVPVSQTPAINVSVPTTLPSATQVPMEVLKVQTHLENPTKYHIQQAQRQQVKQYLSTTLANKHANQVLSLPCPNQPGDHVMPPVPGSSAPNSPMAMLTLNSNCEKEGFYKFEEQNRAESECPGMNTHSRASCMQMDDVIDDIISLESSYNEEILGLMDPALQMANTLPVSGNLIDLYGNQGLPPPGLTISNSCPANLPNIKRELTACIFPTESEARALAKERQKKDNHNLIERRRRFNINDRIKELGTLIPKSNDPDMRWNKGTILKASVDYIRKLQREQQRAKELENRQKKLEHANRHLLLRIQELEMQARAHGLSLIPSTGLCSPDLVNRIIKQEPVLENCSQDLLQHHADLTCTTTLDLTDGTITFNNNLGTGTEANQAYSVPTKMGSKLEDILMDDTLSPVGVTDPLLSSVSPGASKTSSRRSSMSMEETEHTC
# [18] = molecular target: Paired box protein Pax-8 (Homo sapiens, UniProt Q06710); experiment: inhibitors of PAX8-driven TPO luciferase reporter, dose response, RMG-I cells, cherry-pick (AID 687027); type: functional, cell-based;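 further: luciferase reporter driven by Pax8 target thyroperoxidase promoter measured by SteadyGlo luminescence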
# Paired box protein Pax-8, sequence (Q06710 whole entry): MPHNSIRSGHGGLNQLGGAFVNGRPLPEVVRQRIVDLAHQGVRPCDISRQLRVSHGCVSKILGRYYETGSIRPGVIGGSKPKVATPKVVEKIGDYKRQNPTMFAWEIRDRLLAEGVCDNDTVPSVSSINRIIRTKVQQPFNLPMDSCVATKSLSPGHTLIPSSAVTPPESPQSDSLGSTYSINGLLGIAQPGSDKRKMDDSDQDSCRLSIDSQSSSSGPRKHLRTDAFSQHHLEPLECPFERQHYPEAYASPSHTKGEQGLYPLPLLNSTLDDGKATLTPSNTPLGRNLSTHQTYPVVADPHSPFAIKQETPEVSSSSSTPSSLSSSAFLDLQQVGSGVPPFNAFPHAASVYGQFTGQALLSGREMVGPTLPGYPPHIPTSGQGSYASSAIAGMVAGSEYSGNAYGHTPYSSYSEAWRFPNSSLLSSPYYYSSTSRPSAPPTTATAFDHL
# [19] = system: HEK293; experiment: cells; type: functional, cell-based; details: Homo sapiens; remark: listed apart in the source
# [20] = system: Streptococcus sp. 'group A'; experiment: growth inhibition of control SK(-) GAS strain, dose response, counter-screen for streptokinase expression inhibitor project, luminescence, kanamycin, BacTiterGlo, confirmation (AID 1900); type: functional, organism-based
# [21] = A Cell Based Secondary Assay To Explore Cytotoxicity of Compounds that Sensitize Mycobacterium Tuberculosis to Beta-Lactam Antibiotics.; type: functional
# [22] = system: BJ; experiment: cells; type: functional, cell-based; details: Homo sapiens
smiles,measurement,setting,value
COc1cccc(N2C(=O)c3cccnc3C2Nc2ccc(C)c(C)c2)c1 (configuration not stated),IC50,[1],> 80 µM (inactive)
same,IC50,[2],> 80 µM (inactive)
CC(C)(C)c1ccc(S(=O)(=O)/C=C/C#N)cc1 [BAY-11-7085],AC50,[3],35.5 µM (inconclusive)
Clc1ccc(CN2CCc3c([nH]c4ccccc34)C2)cc1Cl,AC50,[4],18.3 µM (active)
same,AC50,[5],2.03 µM (active)
same,AC50,[6],13.9 µM (active)
COc1ccc2c(C)nc(Nc3nc(O)cc(-c4ccccc4)n3)nc2c1,EC50,[7],3.18 µM (inconclusive)
same,EC50,[8],> 20 µM (inactive)
same,IC50,[10],1.73 µM (active)
same,IC50,[11],2.37 µM (active)
same,IC50,[12],> 80 µM (inactive)
same,EC50,[13],2.8 µM (active)
same,EC50,[14],2.14 µM (active)
same,EC50,[15],2.73 µM (active)
same,EC50,[16],1.6 µM (active)
same,AC50,[17],2.91 µM (active)
same,AC50,[18],2.61 µM (active)
same,IC50,[19],> 20 µM (inactive)
same,EC50,[20],2.96 µM (active)
same,CC50,[21],> 40 µM (active)
same,EC50,[22],21 µM (active)
